Test [1] relates to Eleven human cancer cell lines. Nature of the test: MTT colorimetric assay, across the eleven human cancer cell lines. The format is cell-based. In outline: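 Cells were seeded, left 24 h at 37 °C, then exposed to compound at molar concentrations from 10^-8 to 10^-4 M for 72 h at 37 °C, in sestuplicate. Mean OD gave % living cells versus untreated control.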
Background: Tetrazolium dyes change colour on reduction, which living cells bring about.

The test system of test [2] is A549 non-small-cell-lung cancer cell line. Kind of test: Cellular imaging (quantitative videomicroscopy), global growth ratio, A549. Format: cell-based. The note with it: Homo sapiens, 72 h, read-out: Global Grow Ratio Treated/Ct (GGR T/Ct) determined by Video Quantitative microscopy, A549. The source says:
As the MTT test is based on the mitochondria functions, we also investigated the effects of the di- and tri-vanilloyl derivatives according to the invention on cell proliferation, migration and morphology by means of a cellular imaging approach (Debeir et al., Cytometry 60:29-40, 2004; Debeir et al., IEEE Trans Med Imaging 24:697-711, 2005) either in the human U373-MG glioma cell line, which is apoptosis-resistant but autophagy-sensitive (Lefranc F et al., Neurosurgery 2008) and in the human A549 non-small-cell-lung cancer cell line, which is apoptosis-resistant and autophagy-resistant (Mijatovic T et al., Neoplasia 2006, May; 8(5):402-12).
Investigations have also been performed in human normal fibroblasts (WS1 and WI38—see Tables 4 and 5). Cellular imaging relied on the use of computer-assisted phase-contrast microscopy making possible to film the behaviour of living cells in culture dishes for several days.
Cells were seeded in a 25-cm^2 flask at a low density, treated or not with the vanilloyl-esters invention (at a concentration of 50 μM) and filmed thereafter for a period of 72 h. The experiment was conducted in quadruplicates (in duplicates for DLT-95 compounds).
The behaviour of the cells, in terms of morphology, growth and death were thus investigated. The effect on the overall growth was measured by counting the number of cells on the first (0 h) and the last image (72 h) of each film. The global growth ratio (GGR) was then deduced by dividing the number of cells on the last image by the number of cells on the first image. The ratio GGRtreated cells/GGRcontrol cells, was further calculated thereby obtaining a value that describes the effect of compounds of the present invention on the overall cell growth. The methodology is fully described and validated in Debeir et al., 2008, Exp Cell Res 314:2985-2998 and Mathieu et al., 2009, J Cell Mol Med, Feb. 20, 2009.
Illustrative pictures (time=0 h and 72 h) of glioblastoma and normal fibroblast cell line left untreated or treated with poly-vanillic compounds according to the invention (50 μM) are provided in FIG. 1 (U373 glioblastoma) and FIG. 2 (normal fibroblasts). The GGR parameter analyses confirmed the marked impairment of cell growth in both cancer cell lines of the poly-vanillic compounds according to the invention (Table 5).

Test [3] concerns U373-MG glioma cell line. Nature of the test: Cellular imaging (quantitative videomicroscopy), global growth ratio, U373. Format: cell-based. The note with it: Homo sapiens, 72 h, read-out: Global Grow Ratio Treated/Ct (GGR T/Ct) determined by Video Quantitative microscopy, U373.
Test [4] concerns the target T1, CDK5/p25 (Homo sapiens, UniProt Q00535).
T1 construct: made in house
Nature of the test: Kinase activity assay, CDK5. Format: biochemical. The note with it: 10 μM, 1% DMSO, 15 μM ATP; residual activity. On the procedure: (§1) Buffer A: 10 mM MgCl2, 1 mM EGTA, 1 mM DTT, 25 mM Tris-HCl pH 7.5, 50 μg heparin/ml. Buffer C: 60 mM β-glycerophosphate, 15 mM p-nitrophenylphosphate, 25 mM Mops (pH 7.2), 5 mM EGTA, 15 mM MgCl2, 1 mM DTT, 1 mM sodium vanadate, 1 mM phenyl phosphate.
(§2) Kinase activities were assayed in Buffer A or C, at 30° C., at a final ATP concentration of 15 μM. Blank values were subtracted and activities expressed in % of the maximal activity, i.e. in the absence of inhibitors. Controls were performed with appropriate dilutions of DMSO.
CDK1/cyclin B (M phase starfish oocytes, native), CDK2/cyclin A, CDK2/cyclin E, CDK5/p25 and CDK7/cyclin H (human, recombinant) were prepared as previously described (Leclerc et al., 2001, J. Biol. Chem. 2001, 276, 251-260; Bach et al., 2005, J Biol Chem 280: 31208-31219). Their kinase activity was assayed in buffer C, with 1 mg histone H1/ml, in the presence of 15 μM [gamma-^33P] ATP (3,000 Ci/mmol; 10 mCi/ml) in a final volume of 30 μl. After 30 min incubation at 30° C., 25 μl aliquots of supernatant were spotted onto 2.5×3 cm pieces of Whatman P81 phosphocellulose paper, and, 20 sec later, the filters were washed five times (for at least 5 min each time) in a solution of 10 ml phosphoric acid/liter of water. The wet filters were counted in the presence of 1 ml ACS (Amersham) scintillation fluid.

In test [5] the target is pfGSK3 (Plasmodium falciparum, UniProt O77344). Nature of the test: Kinase activity assay, pfGSK3. The format is biochemical. The note with it: 10 μM, 1% DMSO, 15 μM ATP; residual activity. On the procedure:
as §1, §2

Where [6] appears, read: mean ± SEM over the 11 human cancer cell lines, MTT, 72 hours, read-out: In Vitro IC50 Growth Inhibitory Values, m ± SEM.
[7] abbreviates: Homo sapiens, 72 h, read-out: In Vitro IC50 Growth Inhibitory Values, m ± SEM.

Where two headings read alike, the source gives them in different places.

Sequence of pfGSK3 (O77344 1-440): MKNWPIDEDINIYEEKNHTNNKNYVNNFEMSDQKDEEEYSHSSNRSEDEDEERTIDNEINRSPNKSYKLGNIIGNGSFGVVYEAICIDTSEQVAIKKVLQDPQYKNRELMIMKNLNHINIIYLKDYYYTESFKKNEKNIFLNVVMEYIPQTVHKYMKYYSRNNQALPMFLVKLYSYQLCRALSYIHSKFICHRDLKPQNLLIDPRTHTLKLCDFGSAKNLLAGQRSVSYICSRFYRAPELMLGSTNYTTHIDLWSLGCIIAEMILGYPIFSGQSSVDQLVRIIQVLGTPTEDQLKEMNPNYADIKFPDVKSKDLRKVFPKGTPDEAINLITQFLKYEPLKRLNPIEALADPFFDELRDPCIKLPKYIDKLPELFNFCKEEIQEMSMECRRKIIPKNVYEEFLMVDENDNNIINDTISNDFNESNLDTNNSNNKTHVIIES
T1 sequence (Q00535 whole entry): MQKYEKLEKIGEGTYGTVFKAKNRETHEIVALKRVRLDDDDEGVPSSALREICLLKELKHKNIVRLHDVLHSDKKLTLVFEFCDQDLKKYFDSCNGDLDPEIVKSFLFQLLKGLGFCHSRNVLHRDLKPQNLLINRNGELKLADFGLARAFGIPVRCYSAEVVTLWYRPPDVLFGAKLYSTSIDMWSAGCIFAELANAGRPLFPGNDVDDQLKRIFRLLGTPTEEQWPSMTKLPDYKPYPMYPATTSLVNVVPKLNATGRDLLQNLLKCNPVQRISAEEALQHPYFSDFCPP
T1 sequence (Q15078 99-307 partner limits assumed): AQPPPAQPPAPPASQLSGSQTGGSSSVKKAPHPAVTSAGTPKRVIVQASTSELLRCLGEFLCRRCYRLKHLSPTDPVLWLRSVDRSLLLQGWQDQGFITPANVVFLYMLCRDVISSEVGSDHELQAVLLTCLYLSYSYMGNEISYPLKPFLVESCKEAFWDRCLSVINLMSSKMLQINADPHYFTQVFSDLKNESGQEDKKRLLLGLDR

Broadly, the IC50 is the concentration that gives 50% inhibition. For `COc1cc(C(=O)OCCCCCCOC(=O)c2ccc(O)c(OC)c2)ccc1O` [DLT11, Hexane-1,6-diyl bis-(4-hydroxy-3-methoxybenzoate)], the IC50 is 22 to 71 µM in test [1] (Homo sapiens, MTT colorimetric assay, read-out: IC50 growth inhibitory values, range depending on the cancer cell line analyzed) and 49 µM in test [1] (setting [6]). The activity at 50 µM in test [2] stood at 20%.

As for `O=C(OCc1cc(COC(=O)c2ccc(O)c(Cl)c2)cc(COC(=O)c2ccc(O)c(Cl)c2)c1)c1ccc(O)c(Cl)c1` [DLT95-Cl, [3,5-bis[(4-hydroxy-3-chloro-benzoyl)oxymethyl]phenyl]methyl 4-hydroxy-3-chloro-benzoate], the IC50 in test [1] (setting [7]) is 29 ± 1 µM. Besides, in test [3], the activity at 31 µM was 50%.

For the compound `COc1cc(C(=O)OCCOC(=O)c2ccc(O)c(OC)c2)ccc1O` [DLT1, Ethane-1,2-diyl bis-(4-hydroxy-3-methoxybenzoate)], the 50% inhibitory concentration (IC50) in test [1] (setting [6]) was 53 µM. Besides, in test [2], the activity at 50 µM was 50%. The “% ENZYMATIC ACTIVITY, CDK5” value in test [4] amounted to 87%. In addition, the “% ENZYMATIC ACTIVITY, pfGSK3” value in test [5] came out at 92%.

With `O=C(OCc1cc(COC(=O)c2ccc(O)c(F)c2)cc(COC(=O)c2ccc(O)c(F)c2)c1)c1ccc(O)c(F)c1` [DLT95-F, [3,5-bis[(4-hydroxy-3-fluoro-benzoyl)oxymethyl]phenyl]methyl 4-hydroxy-3-fluoro-benzoate], in test [1] (setting [7]), the half-maximal inhibitory concentration (IC50) turned out to be 33 ± 2 µM. Further, the activity at 37 µM in test [3] was 40%.

Turning to `COc1cc(C(=O)O)ccc1O` [vanillic acid, reference compound], in test [1] (setting [6]), the half-maximal inhibitory concentration (IC50) is over 1000 µM.

(Values after patent publication US20110280940A1, “Di-Vanilloyl And Tri-Vanilloyl Derivatives For Use In Anti-Cancer Therapy” (priority 2008, published 2011).)
